Assay results taken from patent US20060257481A1, “Sustained release formulation and dosing schedule of leukotriene synthesis inhibitor for human therapy” (deCODE Genetics ehf., priority 2005, published 2006).

What was measured:
CRP = assay: Study DG-031-203 open label dose ranging: serum CRP; assay type: in vivo, human
Protocol: The study also collected information on the dose-related effect of DG-031 on capacity for LTB4 production (ex vivo), plasma MPO, and serum-CRP. […] The pattern observed supported a concentration dependent pharmacologic effect of DG-031 on capacity for LTB4 production measured ex vivo. The effects on LTB4 production amounted to a 30% (p=0.016) and 25% (p=0.094) reduction with the 375 mg BID and 250 mg TID doses, respectively.

clinical = conditions: human, in vivo
Protocol: Measurements of plasma DG-031 can be carried out by methods that are standard in the art. […] The DG-031 is then measured by liquid chromatography and/or mass spectrometry and the measured concentration is compared to a standard curve.
After completion of the double-blind study reported herein an open-label randomized study was conducted in an independent cohort but with same eligibility criteria and measuring several of the same biomarkers. […] Each patient was on drug for 8 days; there was no placebo group. The primary objective of this study was to determine pharmacokinetic parameters of DG-031 in three different doses, as well as to assess the pharmacokinetic/pharmacodynamic relationship between DG-031, LTB4 and MPO.
The additional phase II study was conducted to compare a 750 mg total daily dose administered in a BID or TID dosing regimen.

MMP-9 = assay: Study DG-031-201: MMP 9; assay type: in vivo, human; conditions: difference visit 2 to visit 5; 500 and 750 mg/day vs placebo cohort
Protocol: Patients who met the study eligebility criteria were enrolled and randomized into 3 different dose-level groups: (1) 64 patients on 250 mg/day therapy with DG-031 (250 mg q.d.), vs placebo; (2) 64 patients on 500 mg/day therapy with DG-031 (250 mg b.i.d.) vs placebo; and (3) 63 patients on 750 mg/day therapy with DG-031 (250 mg t.i.d.) vs placebo. […] All patients received 3 tablets per day. Treatment periods, 4 weeks in duration each, were separated by a 2-week washout period. The placebo tablets were identical in shape, color, form and taste to the active tablets except that they contained no active drug ingredients. Treatment with DG-031 or placebo was in addition to the subject's standard care, including all medications and treatment plan as prescribed by the subject's cardiologist prior to enrolment. A total of 191 subjects were enrolled, with 172 completing all 8 visits or 8 patients short of the target of 180 patients.
All data were analyzed according to a pre-established statistical analysis plan (SAP) and by intention-to-treat (ITT). Each arm of the study, as well as pooled sets (combining dose levels), was considered for the primary analysis. […] The difference between DG-031 and placebo treatment was the primary outcome, assessed separately for each of the biomarkers. […]

## O=C(O)[C@@H](c1ccc(OCc2ccc3ccccc3n2)cc1)C1CCCC1 [DG-031, (R)-(+)-alpha-cyclopentyl-4-(2-quinolinylmethoxy)-Benzeneacetic acid]
CRP; 250 mg TID, CRP above median (1.4 mg/L) at entry, P=0.014
  Reduction in CRP levels, high CRP group: 48%
CRP; 250 mg TID, St. 203, 1 wk, p = 0.07
  CRP: 37% (St. 203)
CRP; 250 mg TID, after one week of therapy, all subjects, follow-up study 203, [9%,57%]
  Reduction of serum CRP: 38%
CRP; 375 mg BID, Study 203
  CRP: No effect
CRP; 375 mg BID, all subjects, one week, p=0.94
  Change in CRP: −1%
CRP; 375 mg BID, p=0.16, not significant
  Reduction of CRP, high CRP group: 31%
CRP; 375 mg QD, Study 203, 1 wk, p = 0.021
  CRP: −28%
clinical; Dominant half-life, humans
  half-life: 2.5 to 3 h
clinical; Slower half-life, fraction of the dose with slower elimination
  half-life: 10 to 15 h
MMP-9
  Carry-over effect, MMP 9: −0.04
